From BigSolDB 2.1

O=C1NC(=O)c2ccccc21
solubility (mole fraction)
Details | in acetone | in acetonitrile | in ethanol | in ethyl acetate | in isobutanol | in isopropanol | in methanol | in n-butanol | in n-propanol | in toluene
283.15 K | 0.00783 | 0.00145 | 0.00116 | 0.00388 | 0.0014 | 0.00159 | 0.00129 | 0.00166 | 0.00156 | 0.000253
285.65 K | 0.00854 | 0.00161 | 0.00133 | 0.00441 | 0.00155 | 0.00175 | 0.00142 | 0.00185 | 0.00173 | 0.000295
288.15 K | 0.00935 | 0.0018 | 0.00151 | 0.00498 | 0.00171 | 0.00198 | 0.00162 | 0.00203 | 0.00188 | 0.000348
290.65 K | 0.0101 | 0.00209 | 0.0017 | 0.00557 | 0.0019 | 0.0022 | 0.00183 | 0.00221 | 0.00203 | 0.000401
293.15 K | 0.011 | 0.00238 | 0.00193 | 0.00615 | 0.00206 | 0.00247 | 0.0021 | 0.00243 | 0.00222 | 0.000456
295.65 K | 0.0119 | 0.00271 | 0.00215 | 0.00677 | 0.00222 | 0.0027 | 0.00236 | 0.00266 | 0.00242 | 0.000514
298.15 K | 0.0128 | 0.00305 | 0.0024 | 0.00749 | 0.00242 | 0.00298 | 0.0026 | 0.00285 | 0.00263 | 0.000577
300.15 K | 0.0137 | 0.00335 | 0.0026 | 0.00813 | 0.0026 | 0.0033 | 0.00288 | 0.00308 | 0.00282 | 0.000624
303.15 K | 0.0149 | 0.00385 | 0.00302 | 0.00879 | 0.00292 | 0.00365 | 0.00317 | 0.00336 | 0.00308 | 0.000694
305.65 K | 0.0159 | 0.0043 | 0.00335 | 0.0097 | 0.00315 | 0.00402 | 0.00346 | 0.00362 | 0.00339 | 0.000756
308.15 K | 0.017 | 0.00472 | 0.00369 | 0.0105 | 0.0034 | 0.00438 | 0.00373 | 0.00393 | 0.00369 | 0.000828
310.65 K | 0.0181 | 0.00518 | 0.00409 | 0.0114 | 0.00368 | 0.00479 | 0.00405 | 0.00424 | 0.00399 | 0.0009
313.15 K | 0.0194 | 0.00577 | 0.00462 | 0.0125 | 0.00398 | 0.00523 | 0.00445 | 0.00456 | 0.0043 | 0.000969
315.65 K | 0.0209 | 0.00631 | 0.00523 | 0.0138 | 0.00428 | 0.00575 | 0.00483 | 0.0049 | 0.00466 | 0.00105
318.15 K | 0.0221 | 0.00686 | 0.00582 | 0.0152 | 0.00469 | 0.00632 | 0.00525 | 0.0054 | 0.005 | 0.00114
